Results reported in patent US20100120700A1, “METHODS AND COMPOSITIONS FOR TREATING CERVICAL CANCER” (priority 2000, published 2010).
“And” between values parts separate entries of the source, which are not always exact repeats. Identical values can stand only once.

Assays:
Assay in all cases: G assay PDZ-PL binding
[1] = target: T1, HEMBA 1003117 #193.3 domain 1 (Homo sapiens, UniProt Q96JH8); conditions: peptide 10 uM, protein 5
T1 construct: made in house; host or cells: E. coli (DH5alpha, BL21 or JM109)
T1 sequence (Q96JH8 969-1068): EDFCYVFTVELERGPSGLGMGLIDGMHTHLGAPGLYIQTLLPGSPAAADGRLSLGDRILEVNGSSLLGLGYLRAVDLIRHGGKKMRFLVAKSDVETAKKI
In short: (§1)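 Specific PDZ–peptide binding is taken as replicate mean signal exceeding GST-only background by standard-error criteria. Biotinylated PL peptides (20 uM; 10 uM under G′ conditions) bind to plate-captured GST/PDZ fusion protein and are detected with streptavidin-HRP at 450 nm.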

MAGI 1 domain 3 = target: T2, MAGI 1 domain 3 (Homo sapiens, UniProt Q96QZ7); conditions: peptide 10 uM, protein 5
T2 construct: made in house; host or cells: E. coli (DH5alpha, BL21 or JM109)
T2 sequence (Q96QZ7 with tags, fused parts or gaps): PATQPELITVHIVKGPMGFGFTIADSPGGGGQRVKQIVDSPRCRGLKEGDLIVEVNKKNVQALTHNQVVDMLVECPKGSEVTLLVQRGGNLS
In short: as §1

INADL domain 3 = target: T3, INADL domain 3 (Homo sapiens, UniProt Q8NI35); conditions: peptide 10 uM, protein 5
T3 construct: made in house; host or cells: E. coli (DH5alpha, BL21 or JM109)
T3 sequence (Q8NI35 with tags, fused parts or gaps): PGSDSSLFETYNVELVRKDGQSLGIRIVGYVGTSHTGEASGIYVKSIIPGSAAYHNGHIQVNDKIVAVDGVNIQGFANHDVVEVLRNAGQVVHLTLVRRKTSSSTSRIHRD
In short: as §1

TIP1 domain 1 = target: T4, TIP1 domain 1 (Homo sapiens, UniProt O14907); conditions: vs GST only well, peptide 10 uM, protein 5
T4 construct: made in house; host or cells: E. coli (DH5alpha, BL21 or JM109)
T4 sequence (O14907 14-116): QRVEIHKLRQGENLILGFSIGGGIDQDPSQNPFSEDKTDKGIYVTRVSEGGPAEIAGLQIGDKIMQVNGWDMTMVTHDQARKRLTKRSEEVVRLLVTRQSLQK
In short: as §1

[2] = target: T5, HEMBA 1003117 #226.2 domain 1 (Homo sapiens, UniProt Q96JH8); conditions: peptide 10 uM, protein 5
T5 construct: made in house; host or cells: E. coli (DH5alpha, BL21 or JM109)
T5 sequence (Q96JH8 969-1068): as the sequence (Q96JH8 969-1068) above
In short: as §1

20 mer peptide corresponding to the C-terminus of HPV16 E6 (PDZ ligand), biotinylated in binding assays; ends SSRTRRETQL (SEQ ID NO: 13) [HPV E6 #16]
Ave OD ([1]; A450 nm): 0.517
OD S/N ([1]; vs GST only well): 2.20
Ave OD (MAGI 1 domain 3; A450 nm): 0.354
OD S/N (MAGI 1 domain 3; vs GST only well): 1.46
Ave OD (INADL domain 3; A450 nm): 0.485
OD S/N (INADL domain 3; vs GST only well): 1.86
OD S/N (TIP1 domain 1): 8.24 and 5.67
Ave OD ([2]; A450 nm): 0.36 and 0.477
OD S/N ([2]; vs GST only well): 1.66 and 2.27
